ChEMBL document CHEMBL3091361, “Synthesis, structure elucidation and in vitro anticancer activities of novel derivatives of diethyl (2E)-2-[(2E)-(1-arylimidazolidin-2-ylidene)hydrazono]succinate and ethyl (4-oxo-8-aryl-4,6,7,8-tetrahydroimidazo[2,1-c][1,2,4]triazin-3-yl)acetate” (Bioorg Med Chem, 2013)

Columns and labels:
[1] = Induction of necrosis in human HSF cells at 50 ug/ml after 24 hrs by propidium iodide/Hoechst 33342 staining-based confocal microscopy (reference value: 2%); type: cell-based
[2] = tested on: T47D; assay: Induction of necrosis in human T47D cells at 50 ug/ml after 48 hrs by propidium iodide/Hoechst 33342 staining-based confocal microscopy (reference value: 8%); type: functional
[3] = tested on: HeLa; assay: Cytotoxicity against human HeLa cells at 50 ug/ml after 48 hrs by BrdU incorporation assay relative to control; type: functional; conditions: read-out: GI
[4] = tested on: T47D; assay: Induction of apoptosis in human T47D cells at 50 ug/ml after 72 hrs by propidium iodide/Hoechst 33342 staining-based confocal microscopy (reference value: 5%); type: functional
[5] = Induction of apoptosis in human HSF cells at 50 ug/ml after 24 hrs by propidium iodide/Hoechst 33342 staining-based confocal microscopy (reference value: 2%); type: cell-based
[6] = Cytotoxicity against human HSF cells at 50 ug/ml after 72 hrs by BrdU incorporation assay relative to control; type: cell-based; conditions: read-out: GI
[7] = Induction of necrosis in human HSF cells at 50 ug/ml after 48 hrs by propidium iodide/Hoechst 33342 staining-based confocal microscopy (reference value: 4%); type: cell-based
[8] = tested on: HeLa; assay: Induction of necrosis in human HeLa cells at 50 ug/ml after 48 hrs by propidium iodide/Hoechst 33342 staining-based confocal microscopy (reference value: 10%); type: functional
[9] = tested on: HeLa; assay: Cytotoxicity against human HeLa cells at 50 ug/ml after 72 hrs by BrdU incorporation assay relative to control; type: functional; conditions: read-out: GI
[10] = tested on: HeLa; assay: Induction of necrosis in human HeLa cells at 50 ug/ml after 72 hrs by propidium iodide/Hoechst 33342 staining-based confocal microscopy (reference value: 10%); type: functional
[11] = tested on: T47D; assay: Cytotoxicity against human T47D cells at 50 ug/ml after 72 hrs by BrdU incorporation assay relative to control; type: functional; conditions: read-out: GI
[12] = Cytotoxicity against human MM1R cells at 50 ug/ml after 48 hrs by BrdU incorporation assay relative to control; type: functional; conditions: MM.1R, read-out: GI
[13] = tested on: T47D; assay: Induction of apoptosis in human T47D cells at 50 ug/ml after 24 hrs by propidium iodide/Hoechst 33342 staining-based confocal microscopy (reference value: 2%); type: functional
[14] = Cytotoxicity against human MM1S cells at 50 ug/ml after 48 hrs by BrdU incorporation assay relative to control; type: functional; conditions: MM1.S, read-out: GI
[15] = Cytotoxicity against human HSF cells at 50 ug/ml after 24 hrs by BrdU incorporation assay relative to control; type: cell-based; conditions: read-out: GI
[16] = tested on: T47D; assay: Induction of necrosis in human T47D cells at 50 ug/ml after 72 hrs by propidium iodide/Hoechst 33342 staining-based confocal microscopy (reference value: 10%); type: functional
[17] = Cytotoxicity against human MM1S cells at 50 ug/ml after 24 hrs by BrdU incorporation assay relative to control; type: functional; conditions: MM1.S, read-out: GI
[18] = tested on: T47D; assay: Induction of necrosis in human T47D cells at 50 ug/ml after 24 hrs by propidium iodide/Hoechst 33342 staining-based confocal microscopy (reference value: 5%); type: functional
[19] = tested on: HeLa; assay: Induction of apoptosis in human HeLa cells at 50 ug/ml after 24 hrs by propidium iodide/Hoechst 33342 staining-based confocal microscopy (reference value: 2%); type: functional
[20] = tested on: T47D; assay: Cytotoxicity against human T47D cells at 50 ug/ml after 48 hrs by BrdU incorporation assay relative to control; type: functional; conditions: read-out: GI
[21] = tested on: HeLa; assay: Induction of necrosis in human HeLa cells at 50 ug/ml after 24 hrs by propidium iodide/Hoechst 33342 staining-based confocal microscopy (reference value: 5%); type: functional
[22] = Induction of apoptosis in human HSF cells at 50 ug/ml after 72 hrs by propidium iodide/Hoechst 33342 staining-based confocal microscopy (reference value: 5%); type: cell-based
[23] = Induction of apoptosis in human HSF cells at 50 ug/ml after 48 hrs by propidium iodide/Hoechst 33342 staining-based confocal microscopy (reference value: 5%); type: cell-based
[24] = tested on: HeLa; assay: Cytotoxicity against human HeLa cells at 50 ug/ml after 24 hrs by BrdU incorporation assay relative to control; type: functional; conditions: read-out: GI
[25] = Cytotoxicity against human MM1S cells at 50 ug/ml after 72 hrs by BrdU incorporation assay relative to control; type: functional; conditions: MM1.S, read-out: GI
[26] = tested on: HeLa; assay: Induction of apoptosis in human HeLa cells at 50 ug/ml after 48 hrs by propidium iodide/Hoechst 33342 staining-based confocal microscopy (reference value: 5%); type: functional
[27] = Induction of necrosis in human HSF cells at 50 ug/ml after 72 hrs by propidium iodide/Hoechst 33342 staining-based confocal microscopy (reference value: 5%); type: cell-based
[28] = Cytotoxicity against human MM1R cells at 50 ug/ml after 24 hrs by BrdU incorporation assay relative to control; type: functional; conditions: MM.1R, read-out: GI
[29] = tested on: T47D; assay: Cytotoxicity against human T47D cells at 50 ug/ml after 24 hrs by BrdU incorporation assay relative to control; type: functional; conditions: read-out: GI
[30] = tested on: T47D; assay: Induction of apoptosis in human T47D cells at 50 ug/ml after 48 hrs by propidium iodide/Hoechst 33342 staining-based confocal microscopy (reference value: 2%); type: functional
[31] = tested on: HeLa; assay: Induction of apoptosis in human HeLa cells at 50 ug/ml after 72 hrs by propidium iodide/Hoechst 33342 staining-based confocal microscopy (reference value: 5%); type: functional
[32] = Cytotoxicity against human MM1R cells at 50 ug/ml after 72 hrs by BrdU incorporation assay relative to control; type: functional; conditions: MM.1R, read-out: GI
[33] = Cytotoxicity against human HSF cells at 50 ug/ml after 48 hrs by BrdU incorporation assay relative to control; type: cell-based; conditions: read-out: GI
[34] = Toxicity in ip dosed albino-Swiss mouse; type: organism-based; conditions: in vivo
[35] = Selectivity ratio for human RPMI8226 cells over human HSF cells; type: ADME, cell-based, RPMI-8226; conditions: RPMI8226 cells versus HSF cells

Row | SMILES | inhibition of growth at 50 µg/mL [3] [%] | inhibition at 72 h, 50 ug/ml [6] [%] | inhibition of growth at 50 µg/mL [9] [%] | inhibition of growth at 50 µg/mL [11] [%] | inhibition of growth at 50 µg/mL [12] [%] | inhibition of growth at 50 µg/mL [14] [%] | inhibition at 24 h, 50 ug/ml [15] [%] | inhibition of growth at 50 µg/mL [17] [%] | inhibition of growth at 50 µg/mL [20] [%] | inhibition of growth at 50 µg/mL [24] [%] | inhibition of growth at 50 µg/mL [25] [%] | inhibition of growth at 50 µg/mL [28] [%] | inhibition of growth at 50 µg/mL [29] [%] | inhibition of growth at 50 µg/mL [32] [%] | inhibition at 48 h, 50 ug/ml [33] [%] | other results
1 | CCOC(=O)Cc1nnc2n(c1=O)CCN2c1ccc(Cl)c(Cl)c1 | 45 | 70 | 80 | 50 | 80 | 65 | 50 | 40 | 40 | 45 | 80 | 65 | 25 | 90 | 60 | Activity [1]: 50%; Activity [2]: 45%; Activity [4]: 20%; Activity [5]: 10%; Activity [7]: 60%; Activity [8]: 45%; Activity [10]: 80%; Activity [13]: 15%; Activity [16]: 50%; Activity [18]: 25%; Activity [19]: 10%; Activity [21]: 45%; Activity [22]: 12%; Activity [23]: 10%; Activity [26]: 10%; Activity [27]: 70%; Activity [30]: 10%; Activity [31]: 15%
2 | O=c1c(-c2ccccc2)nnc2n1CCN2c1ccc(Cl)cc1 | – | – | – | – | – | – | – | – | – | – | – | – | – | – | – | LD50 [34]: > 2000 mg/kg
3 | CCOC(=O)Cc1nnc2n(c1=O)CCN2c1ccccc1 | 75 | 50 | 75 | 85 | 85 | 30 | 25 | 25 | 80 | 20 | 80 | 80 | 40 | 90 | 50 | Activity [1]: 25%; Activity [2]: 80%; Activity [4]: 10%; Activity [5]: 5%; Activity [7]: 50%; Activity [8]: 75%; Activity [10]: 80%; Activity [13]: 5%; Activity [16]: 85%; Activity [18]: 40%; Activity [19]: 10%; Activity [21]: 20%; Activity [22]: 8%; Activity [23]: 5%; Activity [26]: 15%; Activity [27]: 50%; Activity [30]: 10%; Activity [31]: 15%
4 | CCOC(=O)Cc1nnc2n(c1=O)CCN2c1ccccc1OC | 45 | 80 | 50 | 40 | 80 | 55 | 50 | 45 | 35 | 10 | 85 | 75 | 30 | 95 | 80 | –
5 | CCOC(=O)Cc1nnc2n(c1=O)CCN2c1ccc(C)cc1 | 70 | 80 | 70 | 80 | 70 | 60 | 50 | 50 | 75 | 20 | 70 | 60 | 25 | 75 | 75 | –
6 | CCOC(=O)C/C(=N\N=C1/NCCN1c1ccc(Cl)cc1)C(=O)OCC | 30 | 90 | 55 | 90 | 80 | 75 | 70 | 65 | 85 | 10 | 90 | 65 | 80 | 90 | 90 | –
7 | CCOC(=O)C/C(=N\N=C1/NCCN1c1ccc(Cl)c(Cl)c1)C(=O)OCC | 50 | 90 | 60 | 100 | 80 | 80 | 70 | 70 | 95 | 50 | 90 | 70 | 80 | 80 | 90 | –
8 | CCOC(=O)C/C(=N\N=C1/NCCN1c1ccc(C)cc1)C(=O)OCC | 45 | 80 | 50 | 80 | 90 | 70 | 70 | 55 | 75 | 5 | 85 | 75 | 50 | 95 | 80 | –
9 | O=c1c(-c2ccccc2)nnc2n1CCN2c1cccc(Cl)c1 | – | – | – | – | – | – | – | – | – | – | – | – | – | – | – | selectivity ratio [35]: 1.5
10 | CCOC(=O)C/C(=N\N=C1/NCCN1c1cccc(Cl)c1)C(=O)OCC | 25 | 90 | 45 | 90 | 75 | 65 | 70 | 40 | 85 | 5 | 80 | 70 | 80 | 80 | 90 | –
11 | CCOC(=O)Cc1nnc2n(c1=O)CCN2c1cccc(Cl)c1 | 50 | 10 | 50 | 55 | 85 | 60 | 10 | 55 | 55 | 10 | 80 | 80 | 55 | 90 | 10 | Activity [1]: 10%; Activity [2]: 50%; Activity [4]: 20%; Activity [5]: 5%; Activity [7]: 10%; Activity [8]: 50%; Activity [10]: 50%; Activity [13]: 10%; Activity [16]: 55%; Activity [18]: 25%; Activity [19]: 10%; Activity [21]: 10%; Activity [22]: 10%; Activity [23]: 5%; Activity [26]: 15%; Activity [27]: 10%; Activity [30]: 20%; Activity [31]: 15%
